Test results reported in patent US8703204B2, “Nanoparticles comprising a cholesteryl ester transfer protein inhibitor and anon-ionizable polymer” (Bend Research, Inc., priority 2007, dated 2014).
Values after ≈ are worked out from the molar mass of the structure shown. Like-named read-outs stand apart in the source and are kept apart here. Each block holds one compound with its values, some of them ahead of it.

Experiment: Solubility of the drugs in aqueous media
Assay type: physicochemical

solubility (model fasted duodenal (MFD) solution, fassgf or other biorelevant, MFD solution, read-out: solubility in model fasted duodenal (MFD) solution): ~11 µg/mL (≈ 18.4 µM)
SMILES: CC[C@@H]1C[C@H](N(Cc2cc(C(F)(F)F)cc(C(F)(F)F)c2)C(C)=O)c2cc(C(F)(F)F)ccc2N1C(=O)OC(C)C [Drug 2, [2R,4S]4-[acetyl-(3,5-bis-trifluoromethyl-benzyl)-amino]-2-ethyl-6-trifluoromethyl-3,4-dihydro-2H-quinoline-1-carboxylic acid isopropyl ester]

solubility (phosphate buffered saline, aqueous buffer, PBS, pH 6.5, read-out: solubility in phosphate buffered saline at pH 6.5 (PBS)): < 0.1 µg/mL
SMILES: CCc1cc(Oc2cccc(N(Cc3cccc(OC(F)(F)C(F)F)c3)C[C@@H](O)C(F)(F)F)c2)ccc1Cl [Drug 1, (2R)-3-[[3-(4-chloro-3-ethylphenoxy)phenyl][[3-(1,1,2,2-tetrafluoroethoxy)phenyl]methyl]amino]-1,1,1-trifluoro-2-propanol]

solubility (water, read-out: solubility in water): < 0.1 µg/mL
SMILES: CCOC(=O)N1c2ccc(C(F)(F)F)cc2[C@@H](N(Cc2cc(C(F)(F)F)cc(C(F)(F)F)c2)C(=O)OC)C[C@H]1CC [Drug 3, [2R,4S]4-[(3,5-bis-trifluoromethyl-benzyl)-methoxycarbonyl-amino]-2-ethyl-6-trifluoromethyl-3,4-dihydro-2H-quinoline-1-carboxylic acid ethyl ester, reference compound]
